Measured values as given in ChEMBL document CHEMBL5728324, “Inhibitors of Hepatitis C virus polymerase” (2021).

assay: HCV Replicon Assay and EC50 Determination: HCV replicon assay is based on the luciferase reporter cell line (Huh-luc/neo-ET). This reporter cell line is a human liver carcinoma cell line (Huh-7) stably transfected with an autonomously replicating bicistronic HCV subgenomic RNA replicon (Lohmann et al., 1999, Science, 285, 110-113). Inhibition of HCV RNA replication was monitored through analysis of reporter luciferase activity. Briefly, HCV replicon cells were incubated with inhibitors for 72 hours at 37° C. After the incubation, duplicate plates were treated and incubated in parallel for assessment of cellular toxicity by XTT staining and anti-HCV activity by measurement of luciferase reporter activity. Either human interferon alpha 2B or ribavirin was used as a reference compound. EC50 values were determined using GraFit (Erithaus software) or Excel.

SMILES	EC50
CNC(=O)c1c(-c2ccc(F)cc2)oc2cc(N(CC(=O)NC3(C(=O)NCc4cccc(C(=O)/C=C(\O)C(=O)O)c4)CCCC3)S(C)(=O)=O)c(C3CC3)cc12	100 to 1000 nM
CNC(=O)c1c(-c2ccc(F)cc2)oc2cc(N(CCCCCOCc3ccc(C(=O)O)cc3)S(C)(=O)=O)c(C3CC3)cc12	< 100 nM
CNC(=O)c1c(-c2ccc(F)cc2)oc2cc(N(CCOCCOCc3cccc(C(=O)/C=C(\O)C(=O)O)c3)S(C)(=O)=O)c(C3CC3)cc12	< 100 nM
CNC(=O)c1c(-c2ccc(F)cc2)oc2cc(N(CCCCOCCc3ccc(C(=O)O)cc3)S(C)(=O)=O)c(C3CC3)cc12	< 100 nM
CNC(=O)c1c(-c2ccc(F)cc2)oc2cc(N(CCOCCOCc3ccc(C(=O)O)cc3)S(C)(=O)=O)c(C3CC3)cc12	100 to 1000 nM
CNC(=O)c1c(-c2ccc(F)cc2)oc2cc(N(CCCCCCCc3ccc(C(=O)O)cc3)S(C)(=O)=O)c(C3CC3)cc12	< 100 nM
CNC(=O)c1c(-c2ccc(F)cc2)oc2cc(N(CCOCCOCCOC(C(=O)O)c3ccccc3)S(C)(=O)=O)c(C3CC3)cc12 (centres undefined)	100 to 1000 nM
CNC(=O)c1c(-c2ccc(F)cc2)oc2cc(N(CCOCCCc3cccc(C(=O)/C=C(\O)C(=O)O)c3)S(C)(=O)=O)c(C3CC3)cc12	< 100 nM
CNC(=O)c1c(-c2ccc(F)cc2)oc2cc(N(CCOCCCOCc3cccc(C(=O)/C=C(\O)C(=O)O)c3)S(C)(=O)=O)c(C3CC3)cc12	< 100 nM
CNC(=O)c1c(-c2ccc(F)cc2)oc2cc(N(CCOCCOCc3cccc(C(=O)O)c3)S(C)(=O)=O)c(C3CC3)cc12	< 100 nM
CNC(=O)c1c(-c2ccc(F)cc2)oc2cc(N(CCOCCOCCOCC(=O)NO)S(C)(=O)=O)c(C3CC3)cc12	< 100 nM
CNC(=O)c1c(-c2ccc(F)cc2)oc2cc(N(CC(=O)NC(C)(C)C(=O)NCc3cccc(C(=O)/C=C(\O)C(=O)O)c3)S(C)(=O)=O)c(C3CC3)cc12	100 to 1000 nM
CNC(=O)c1c(-c2ccc(F)cc2)oc2cc(N(CCOCCOCc3ccc(OC)c(C(=O)O)c3)S(C)(=O)=O)c(C3CC3)cc12	100 to 1000 nM
CNC(=O)c1c(-c2ccc(F)cc2)oc2cc(N(CCOCCOCCOCCO)S(C)(=O)=O)c(C3CC3)cc12	100 to 1000 nM
CNC(=O)c1c(-c2ccc(F)cc2)oc2cc(N(CCOC(=O)CNC(=O)CCCC(=O)O)S(C)(=O)=O)c(C3CC3)cc12	100 to 1000 nM
CNC(=O)c1c(-c2ccc(F)cc2)oc2cc(N(CCOCCOCCOC(C)C(=O)O)S(C)(=O)=O)c(C3CC3)cc12 (centres undefined)	< 100 nM
CNC(=O)c1c(-c2ccc(F)cc2)oc2cc(N(CCOCCOCCOCCOCCOCCOCc3cccc(C(=O)/C=C(\O)C(=O)O)c3)S(C)(=O)=O)c(C3CC3)cc12	100 to 1000 nM
CNC(=O)c1c(-c2ccc(F)cc2)oc2cc(N(CC(=O)NCC(=O)NCc3cccc(C(=O)/C=C(\O)C(=O)O)c3)S(C)(=O)=O)c(C3CC3)cc12	100 to 1000 nM
CNC(=O)c1c(-c2ccc(F)cc2)oc2cc(N(CC(=O)NC(C)C(=O)NCc3cccc(C(=O)/C=C(\O)C(=O)O)c3)S(C)(=O)=O)c(C3CC3)cc12 (centres undefined)	100 to 1000 nM
CNC(=O)c1c(-c2ccc(F)cc2)oc2cc(N(CCOCCOCCOCC(=O)O)S(C)(=O)=O)c(C3CC3)cc12	100 to 1000 nM
CNC(=O)c1c(-c2ccc(F)cc2)oc2cc(N(CCOCCOCc3cccc(C(C)=O)c3)S(C)(=O)=O)c(C3CC3)cc12	< 100 nM
CNC(=O)c1c(-c2ccc(F)cc2)oc2cc(N(CCOCCOCc3ccc(C(=O)/C=C(\O)C(=O)O)cc3)S(C)(=O)=O)c(C3CC3)cc12	< 100 nM
CNC(=O)c1c(-c2ccc(F)cc2)oc2cc(N(CCOCCOCc3ccccc3C(=O)O)S(C)(=O)=O)c(C3CC3)cc12	< 100 nM
CNC(=O)c1c(-c2ccc(F)cc2)oc2cc(N(CCOCCOCc3ccc(F)c(C(=O)O)c3)S(C)(=O)=O)c(C3CC3)cc12	< 100 nM
